In the supplement of paper PMC8967900:

Columns and labels:
Test in all cases: selective drug sensitivity score (sDSS, relative to normal bone marrow) (sDSS (score)); higher = more potent and effective on the cell line relative to normal bone marrow cells
Conditions in all cases: 72 h
[1] = tested on: 380
[2] = tested on: ALL-SIL
[3] = tested on: CCRF-CEM
[4] = tested on: COG-LL-332h
[5] = tested on: COG-LL-394h
[6] = tested on: COG-LL-402h
[7] = tested on: DND-41
[8] = tested on: HPB-ALL
[9] = tested on: KARPAS-45
[10] = tested on: KASUMI-10
[11] = tested on: KASUMI-2
[12] = tested on: MHH-CALL-3
[13] = tested on: MOLT-14
[14] = tested on: MOLT-4
[15] = tested on: NALM-16
[16] = tested on: NALM-6
[17] = tested on: P12-ICHIKAWA
[18] = tested on: PF-382
[19] = tested on: RCH-ACV
[20] = tested on: RPMI-8402
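Further: ALL cell lines in 384-well plates, five doses spanning 10,000-fold, each plate scaled between vehicle and 100 µmol/L benzalkonium chloride controls, sDSS an adapted area-under-curve metric.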

Compound | selective drug sensitivity score [1] | selective drug sensitivity score [2] | selective drug sensitivity score [3] | selective drug sensitivity score [4] | selective drug sensitivity score [5] | selective drug sensitivity score [6] | selective drug sensitivity score [7] | selective drug sensitivity score [8] | selective drug sensitivity score [9] | selective drug sensitivity score [10] | selective drug sensitivity score [11] | selective drug sensitivity score [12] | selective drug sensitivity score [13] | selective drug sensitivity score [14] | selective drug sensitivity score [15] | selective drug sensitivity score [16] | selective drug sensitivity score [17] | selective drug sensitivity score [18] | selective drug sensitivity score [19] | selective drug sensitivity score [20]
Cc1c(-c2ccc(N3CCc4cccc(C(=O)Nc5nc6ccccc6s5)c4C3)nc2C(=O)O)cnn1CC12CC3CC(CC(C3)C1)C2 (top concentration 1000 nM) | 3.94 | 25.1 | 18.6 | 9.14 | 7.94 | 16.5 | 19.7 | 25.5 | 23.8 | 3.04 | 1.04 | 9.54 | 6.34 | 23.6 | -2.26 | 5.84 | 27.7 | 12.5 | -1.76 | 13
O=C(NOC[C@H](O)CO)c1ccc(F)c(F)c1Nc1ccc(I)cc1F (top concentration 1000 nM) | 2.24 | 3.54 | 1.14 | -2.26 | -0.26 | 1.84 | 8.64 | 0.74 | -3.76 | -2.86 | 10.1 | 14.9 | 8.84 | -1.96 | 2.74 | 7.54 | 0.84 | -2.36 | -1.96 | -3.86
CO[C@@H](C)Cn1c(=O)n(C)c2cnc3ccc(-c4cncc(C(C)(C)O)c4)cc3c21 (top concentration 2500 nM) | 10.3 | 4.78 | 8.48 | 4.18 | -1.82 | 5.48 | 3.18 | 2.18 | 2.08 | -1.02 | 12.3 | -1.42 | 2.08 | 3.38 | -0.52 | 3.68 | 1.38 | 5.88 | 17.6 | 2.78
Cc1cccc(CC(=O)N2CCc3c2ccc(-c2cn(C)c4ncnc(N)c24)c3F)n1 (top concentration 2500 nM) | -0.68 | 0.32 | -0.08 | 0.32 | 5.42 | -0.68 | -0.68 | -0.68 | 1.32 | -0.68 | -0.68 | -0.68 | 1.22 | 3.22 | -0.68 | 4.32 | 2.82 | 3.72 | 7.02 | 5.22
CNC(=O)c1ccccc1Nc1nc(Nc2ccc3c(c2OC)CCC[C@H](N2CCN(CCO)CC2)C3)ncc1Cl (top concentration 5000 nM) | 2.06 | 1.36 | -2.54 | -1.54 | 3.16 | -0.84 | 0.06 | 1.66 | 1.26 | 5.66 | -3.24 | -1.94 | 1.56 | -0.74 | -2.44 | -1.04 | -2.84 | -2.54 | 0.46 | -0.74
COc1cc2ncnc(Oc3cccc(NC(=O)Nc4cc(C(C)(C)C(F)(F)F)on4)c3)c2cc1OC (top concentration 10000 nM) | 0 | 41.3 | 0.1 | 18.4 | 3.9 | 0.3 | 0 | 0 | 3.2 | 10.8 | 5.2 | 0 | 0.8 | 0 | 0 | 0 | 5.9 | 1.2 | 13.9 | 4.7
C[C@@H](Oc1cc(-n2cnc3ccc(CN4CCN(C)CC4)cc32)sc1C(N)=O)c1ccccc1C(F)(F)F (top concentration 10000 nM) | 25.5 | 23.4 | 22.7 | 20.5 | 3.22 | 16.2 | 13.2 | 11.6 | 28.8 | 11 | 15 | 8.92 | 24.8 | 22.8 | 17.4 | 15.8 | 21.9 | 26.7 | 20.9 | 28.8
Nc1nccc(-c2c(-c3ccc(F)cc3)ncn2C2CCCCC2)n1 (top concentration 10000 nM) | 1.4 | 1.5 | 0.7 | 3.1 | 0 | 0.7 | 3.3 | 0.4 | 0.6 | 2.5 | 12.6 | 0.1 | 0 | 0.4 | 0.9 | 0 | 0.1 | 0.8 | 13.5 | 0.6
O=C(O)c1ccc(-c2c[nH]c3ncc(-c4ccccc4)cc23)cc1C1CCCC1 (top concentration 10000 nM) | 0.86 | 4.26 | 3.66 | 2.86 | -1.44 | -1.44 | -1.24 | 0.06 | 4.36 | 5.46 | -1.44 | 3.76 | 2.46 | -0.94 | -1.44 | -1.44 | 3.46 | -0.34 | 5.76 | 1.66
C[C@@H]1CN(CC(=O)Nc2ccc3c(c2)Cc2cccc(-c4cc(=O)cc(N5CCOCC5)o4)c2S3)C[C@H](C)O1 (top concentration 25000 nM) | -1.88 | 3.32 | 2.62 | 2.02 | -0.68 | 1.92 | 4.02 | 2.22 | 1.72 | -2.18 | -2.08 | -2.18 | 0.32 | -0.08 | -2.18 | 2.92 | -0.58 | 0.82 | 8.12 | 1.82
COc1ccc2[nH]cc(/C=C3\C(=O)Nc4ccc(NC(=O)CCN5CCCCC5)cc43)c2c1 (top concentration 50000 nM) | -4.62 | 1.58 | -0.02 | 4.68 | 0.18 | 1.18 | 1.38 | -3.32 | 7.98 | 1.78 | -4.72 | -5.32 | 0.98 | -1.12 | -2.42 | -2.12 | -0.52 | 1.18 | 1.08 | 2.68
Cc1nn(C)c(COc2ccc(N3CCN(S(=O)(=O)N(C)C)CC3)cc2)c1-c1cccc2c(CCCOc3cccc4ccccc34)c(C(=O)O)n(CCN3CCOCC3)c12 (top concentration 50000 nM) | 0.86 | 7.26 | 9.06 | 4.16 | 4.56 | 4.26 | 4.56 | 2.16 | 8.16 | 3.86 | -0.74 | 2.56 | 6.96 | 6.56 | 4.36 | 4.26 | 6.76 | 3.16 | 4.66 | 4.86
C[C@H](Nc1ncnc2[nH]cnc12)c1cc2ccc(F)cc2nc1-c1ccccn1 [AMG319] (top concentration 1000 nM) | -1.02 | -1.42 | -1.42 | -1.42 | -1.42 | 5.88 | -0.92 | -1.42 | -0.22 | -1.42 | 7.58 | -0.42 | -1.42 | -1.42 | -1.42 | 3.68 | -1.42 | -1.42 | 19.3 | -1.42
C=CCn1c(=O)c2cnc(Nc3ccc(N4CCN(C)CC4)cc3)nc2n1-c1cccc(C(C)(C)O)n1 [AZD1775] (top concentration 10000 nM) | 10.8 | 10 | 14.2 | 11 | 5.54 | 10.2 | 11.5 | 9.44 | 14.9 | 7.84 | 4.94 | 5.64 | 14.3 | 14.6 | 6.64 | 11 | 13.6 | 12.4 | 17.2 | 13.9
NC(=O)Nc1cc(-c2cccc(F)c2)sc1C(=O)N[C@H]1CCCNC1 [AZD7762] (top concentration 1000 nM) | 1 | 0 | -0.1 | -0.8 | -3.5 | 3.3 | 2.3 | -1.5 | 1.8 | 12.9 | -4.2 | 1.9 | 0.6 | -1.3 | 0.5 | 0.6 | -0.5 | -0.5 | 7.9 | 0
Cc1cc([C@@H](C)Nc2ccccc2C(=O)O)c2nc(N3CCOCC3)cc(=O)n2c1 [AZD-6482] (top concentration 2500 nM) | 4.72 | -0.28 | 2.02 | 1.32 | -0.28 | 6.52 | 2.32 | 2.92 | 1.82 | -0.28 | 10.2 | 0.42 | -0.28 | 1.52 | 0.42 | 5.62 | 0.42 | 2.62 | 17.6 | 2.32
CN(C)Cc1c(C(=O)NCCOc2ccc(C(=O)NO)cc2)oc2ccccc12 [Abexinostat] (top concentration 10000 nM) | 7.56 | 6.76 | 4.56 | 0.36 | 3.86 | 13.4 | 4.46 | 6.76 | 10.6 | 6.06 | 8.66 | 15.4 | 7.36 | 3.76 | 0.56 | 2.76 | 4.66 | 2.86 | 10.6 | 4.96
S=C(NCc1ccc2c(c1)OCO2)N1CCN(c2ncnc3c2oc2ccccc23)CC1 [Amuvatinib] (top concentration 10000 nM) | 3.76 | 6.66 | 1.56 | 2.96 | 7.36 | 2.36 | 4.16 | 2.66 | 5.06 | -1.44 | 10.8 | 5.06 | 3.56 | 4.66 | 0.86 | 3.86 | 7.46 | 5.06 | 9.26 | 10.9
CC(=O)OC[C@H]1O[C@@H]([S-])[C@H](OC(C)=O)[C@@H](OC(C)=O)[C@@H]1OC(C)=O.CCP(CC)CC.[Au+] [Auranofin] (top concentration 2500 nM) | 12.3 | 2.44 | 2.74 | 1.44 | 0.14 | 7.84 | 1.94 | 5.64 | 0.94 | 5.54 | 0.54 | 4.04 | 0.04 | -0.46 | -0.56 | 5.34 | -0.96 | -1.36 | 3.84 | -2.36
